{
  "source": "paper PMC6294263",
  "about": "(Stem Cell Reports, 2018)",
  "key": {"[1]": {"system": "hiPSC-CMs (Cor.4U cardiomyocytes)", "experiment": "calcium transient-based hiPSC-CM (CTCM) assay with cardiac hazard scoring", "conditions": "for arrhythmic (EAD-like) events: tested concentrations of Figure 5; for EAD-like events: control drugs at control concentration (E-4031 30 nM, dofetilide 3 nM, cetirizine 1 μM)", "source_text": "Fluorescence imaging of intracellular calcium dynamics (i.e., calcium transients) enabled the evaluation of the spontaneous beating properties of hiPSC-CMs (Figure 2A) using the following parameters: (1) calcium transient duration at 90% of decay following the peak amplitude (CTD90), (2) beat rate (BR) representing the number of calcium transients (i.e., beats) per minute, and (3) amplitude (Amp), representing the difference between the minimum and the maximum (peak) calcium signal.\nEffects on hiPSC-CMs were evaluated after a 30-min incubation period and normalized against the respective baseline recording, yielding a Δ% change in CTD90, BR, and Amp.\nCells were cultured with Cor.4U culture medium (Ax-M-HC250) in a humidified incubator at 37°C and 5% CO2, with medium being changed once a day. On the day of the experiment, the culture medium was replaced with Tyrode's solution (Sigma, No. T2397) supplemented with 10 mM HEPES together with KCl to represent isokalemic (4.2 mM K^+) conditions.\nBriefly, Cal-520 was incubated for 45 min followed by a washout and a 30-min recovery before starting the experiments.\nThe spontaneous beating activity of hiPSC-CMs was assessed through measurement of the Ca^2+ fluorescence signal integrated over the whole well.\nFirst, the experimental plates were put into the FDSS/μCell to stabilize for 10 min. Next, a baseline recording was run for 3 min followed by compound addition. The effect of a compound was recorded (5-min recording time) around 15 and 30 min after compound addition. CTD90, BR, and Amp were quantified for baseline and 30-min compound effects as the median value of all beats (calcium transients) measured within a 1-min interval of the recording. The recording around 15 min was used only for observation of EADs or fibrillation-like events. EADs were manually monitored and evaluated. Beat stop was defined after 30 min in case BR was <5 beats/min. Wells that temporarily stopped beating during compound addition but recovered at the 30-min time point were not defined as beat stop.\nThe responses were measured at baseline and at 30 min."}, "hERG": {"system": "hERG", "conditions": "no reference given; read-out: half maximal inhibitory concentration [IC50] on hERG; cited from earlier work"}, "[2]": {"conditions": "30-min incubation, reference drugs"}, "[3]": {"conditions": "reference drugs, tested concentrations of Figure 5 (selected to cover the therapeutic free Cmax), 30-min incubation"}, "[4]": {"conditions": "3 nM (2-fold free Cmax), 30-min incubation, control drug over numerous studies"}, "[5]": {"conditions": "0.1 μM, 30-min incubation, control drug over numerous studies, the rest in the high hazard zone"}, "[6]": {"conditions": "5 μM (free Cmax), 30-min incubation, control drug over numerous studies"}},
  "data": [
    {"smiles": "CC[C@H]1[C@@H]2C[C@H]3[C@@H]4N(C)c5ccccc5[C@]45C[C@@H]([C@H]2[C@H]5O)N3[C@@H]1O", "note": "[Ajmaline]", "values": [
      {"measurement": "arrhythmic (EAD-like) events", "setting": "[1]; reference drugs", "result": "caused arrhythmic events"}
    ]},
    {"smiles": "CCN(CC)CCCN(c1ccccc1)C1Cc2ccccc2C1", "note": "[Aprindine]", "values": [
      {"measurement": "effect on CTD90", "setting": "[1]; [2]", "result": "CTD90 prolongation"}
    ]},
    {"smiles": "CC(C)NCC(O)COc1ccc(CC(N)=O)cc1", "note": "(centres unmarked) [Atenolol]", "values": [
      {"measurement": "cardiac hazard label", "setting": "[1]; [3]", "result": "not identified for any potential hazard"}
    ]},
    {"smiles": "COC(=O)C1=C(C)NC(C)=C([N+](=O)[O-])C1c1ccccc1C(F)(F)F", "note": "(centres unmarked) [BAYK8644]", "values": [
      {"measurement": "effect on amplitude (Amp)", "setting": "[1]; 30-min incubation", "result": "increase the Amp"},
      {"measurement": "cardiac hazard label", "setting": "[1]; [3]", "result": "high"}
    ]},
    {"smiles": "C[N+](C)(C)CCOC(N)=O", "note": "[Carbachol]", "values": [
      {"measurement": "cardiac hazard label", "setting": "[1]; [3]", "result": "not identified for any potential hazard"}
    ]},
    {"smiles": "O=C(O)COCCN1CCN(C(c2ccccc2)c2ccc(Cl)cc2)CC1", "note": "(centres unmarked) [Cetirizine]", "values": [
      {"measurement": "studies identified as no hazard", "setting": "[1]; 1 μM (16-fold free Cmax), 30-min incubation, control drug over numerous studies", "result": 99, "unit": "%"},
      {"measurement": "EAD-like events", "setting": "[1]; 30-min incubation", "result": "not observed any EAD-like event"}
    ]},
    {"smiles": "CN(C)CCCC1(c2ccc(F)cc2)OCc2cc(C#N)ccc21", "note": "(centres unmarked) [Citalopram]", "values": [
      {"measurement": "cardiac hazard label", "setting": "[1]; [3]", "result": "low"}
    ]},
    {"smiles": "CC(CCc1ccc(O)cc1)NCCc1ccc(O)c(O)c1", "note": "(centres unmarked) [Dobutamine]", "values": [
      {"measurement": "effect on beat rate (BR)", "setting": "[1]; [2]", "result": "strong BR increase"},
      {"measurement": "cardiac hazard label", "setting": "[1]; [3]", "result": "low or high"}
    ]},
    {"smiles": "CN(CCOc1ccc(NS(C)(=O)=O)cc1)CCc1ccc(NS(C)(=O)=O)cc1", "note": "[Dofetilide]", "values": [
      {"measurement": "studies identified as high hazard", "setting": "[1]; [4]", "result": 14, "unit": "%"},
      {"measurement": "studies identified as very high hazard", "setting": "[1]; [4]", "result": 80, "unit": "%"},
      {"measurement": "EAD-like events", "setting": "[1]; 30-min incubation", "result": "provoked such EAD-like events"}
    ]},
    {"smiles": "COc1ccc(C(=O)Nc2ccccc2CCC2CCCCN2C)cc1", "note": "(centres unmarked) [Encainide]", "values": [
      {"measurement": "arrhythmic (EAD-like) events", "setting": "[1]; reference drugs", "result": "caused arrhythmic events"}
    ]},
    {"smiles": "CN(C)CCC[C@@]1(c2ccc(F)cc2)OCc2cc(C#N)ccc21", "note": "[Escitalopram]", "values": [
      {"measurement": "cardiac hazard label", "setting": "[1]; at 3- to 10-fold the free Cmax", "result": "high"}
    ]},
    {"smiles": "O=C(Nc1ccc(Oc2ccccc2)cc1)c1cccc([N+](=O)[O-])c1", "note": "[ICA-105574]", "values": [
      {"measurement": "effect on CTD90", "setting": "[1]; [2]", "result": "CTD90 shortening"},
      {"measurement": "cardiac hazard label", "setting": "[1]; [3]", "result": "hazard identification"}
    ]},
    {"smiles": "CC(C)NCC(O)c1ccc(O)c(O)c1", "note": "(centres unmarked) [Isoprenaline]", "values": [
      {"measurement": "studies identified as low hazard", "setting": "[1]; [5]", "result": 70, "unit": "%"},
      {"measurement": "effect on amplitude (Amp)", "setting": "[1]; 30-min incubation", "result": "increase the Amp"},
      {"measurement": "effect on beat rate (BR)", "setting": "[1]; [2]", "result": "strong BR increase"},
      {"measurement": "cardiac hazard label", "setting": "[1]; [3]", "result": "low or high"}
    ]},
    {"smiles": "COc1cc2c(cc1OC)CC(=O)N(CCCN(C)C[C@H]1Cc3cc(OC)c(OC)cc31)CC2", "note": "[Ivabradine]", "values": [
      {"measurement": "IC50", "setting": "hERG", "result": "~2400", "unit": "nM"}
    ]},
    {"smiles": "CC(C)(Oc1ccc(Cl)cc1)C(=O)NC1C2CC3CC1CC(NS(C)(=O)=O)(C3)C2", "note": "(centres unmarked) [JNJ-303]", "values": [
      {"measurement": "cardiac hazard label", "setting": "[1]; [3]", "result": "cannot be easily detected"}
    ]},
    {"smiles": "CC1(C)Oc2ccc(C#N)cc2[C@@H](N2CCCC2=O)[C@@H]1O", "note": "[Levcromakalim]", "values": [
      {"measurement": "effect on CTD90", "setting": "[1]; [2]", "result": "CTD90 shortening"},
      {"measurement": "cardiac hazard label", "setting": "[1]; [3]", "result": "potentially hazardous compounds"}
    ]},
    {"smiles": "CC(=O)c1c(O)c(C)c(O)c(Cc2c(O)c3c(c(C(=O)/C=C/c4ccccc4)c2O)OC(C)(C)C=C3)c1O", "note": "[Mallotoxin]", "values": [
      {"measurement": "effect on CTD90", "setting": "[1]; [2]", "result": "CTD90 shortening"},
      {"measurement": "cardiac hazard label", "setting": "[1]; [3]", "result": "hazard identification"}
    ]},
    {"smiles": "Cc1cccc(C)c1OCC(C)N", "note": "(centres unmarked) [Mexiletine]", "values": [
      {"measurement": "cardiac hazard label", "setting": "[1]; [3]", "result": "low or high"}
    ]},
    {"smiles": "O=C(NCCO[N+](=O)[O-])c1cccnc1", "note": "[Nicorandil]", "values": [
      {"measurement": "cardiac hazard label", "setting": "[1]; [3]", "result": "not shown to have any potential hazard risk"}
    ]},
    {"smiles": "COCCOC(=O)C1=C(C)NC(C)=C(C(=O)OC(C)C)C1c1cccc([N+](=O)[O-])c1", "note": "(centres unmarked) [Nimodipine]", "values": [
      {"measurement": "studies identified as low hazard", "setting": "[1]; [5]", "result": 80, "unit": "%"},
      {"measurement": "effect on amplitude (Amp)", "setting": "[1]; 30-min incubation", "result": "strongly decrease the Amp"}
    ]},
    {"smiles": "Cc1cc2c(s1)Nc1ccccc1N=C2N1CCN(C)CC1", "note": "[Olanzapine]", "values": [
      {"measurement": "cardiac hazard label", "setting": "[1]; up to the highest tested concentration (100 nM), around the free Cmax", "result": "not identified with any hazard"}
    ]},
    {"smiles": "C[C@@H]1O[C@@H](O[C@H]2C[C@@H](O)[C@]3(CO)[C@H]4[C@H](O)C[C@]5(C)[C@@H](C6=CC(=O)OC6)CC[C@]5(O)[C@@H]4CC[C@]3(O)C2)[C@H](O)[C@H](O)[C@H]1O", "note": "[Ouabain]", "values": [
      {"measurement": "cardiac hazard label", "setting": "[1]; [3]", "result": "high"}
    ]},
    {"smiles": "O=C1NC(=O)C(c2ccccc2)(c2ccccc2)N1", "note": "[Phenytoin]", "values": [
      {"measurement": "studies identified as low hazard", "setting": "[1]; [6]", "result": 20, "unit": "%"},
      {"measurement": "studies identified as no hazard", "setting": "[1]; [6]", "result": 78, "unit": "%"},
      {"measurement": "incidence of beat stop (% of wells)", "setting": "[1]; 5 μM, 30-min incubation", "result": "≤ 50", "unit": "%"},
      {"measurement": "cardiac hazard label", "setting": "[1]; [3]", "result": "low or high"}
    ]},
    {"smiles": "CC(N/C(=N\\C#N)Nc1ccncc1)C(C)(C)C", "note": "(centres unmarked) [Pinacidil]", "values": [
      {"measurement": "effect on CTD90", "setting": "[1]; [2]", "result": "CTD90 shortening"},
      {"measurement": "cardiac hazard label", "setting": "[1]; [3]", "result": "potentially hazardous compounds"}
    ]},
    {"smiles": "CCCNCC(O)COc1ccccc1C(=O)CCc1ccccc1", "note": "(centres unmarked) [Propafenone]", "values": [
      {"measurement": "effect on CTD90", "setting": "[1]; [2]", "result": "CTD90 prolongation"}
    ]},
    {"smiles": "CCC(=O)O[C@](Cc1ccccc1)(c1ccccc1)[C@H](C)CN(C)C", "note": "[Propoxyphene]", "values": [
      {"measurement": "effect on CTD90", "setting": "[1]; [2]", "result": "CTD90 prolongation"}
    ]},
    {"smiles": "C=C[C@H]1C[N@@]2CC[C@H]1C[C@@H]2[C@@H](O)c1ccnc2ccc(OC)cc12", "note": "[Quinidine]", "values": [
      {"measurement": "arrhythmic (EAD-like) events", "setting": "[1]; reference drugs", "result": "caused arrhythmic events"}
    ]},
    {"smiles": "O=C(c1ccc(OCCN2CCCCC2)cc1)c1c(-c2ccc(O)cc2)sc2cc(O)ccc12", "note": "[Raloxifene]", "values": [
      {"measurement": "safety margin (tested concentration/free Cmax) at which a hazard was scored", "setting": "[1]; 3–10 μM, negative control drug", "result": "≥ 2500", "unit": "fold the free Cmax"},
      {"measurement": "concentrations not scored as no hazard", "setting": "[1]; negative control drug, exception to the no hazard scoring", "result": "3000 to 10000", "unit": "nM"}
    ]},
    {"smiles": "CC(C)(C)NCC(O)c1ccc(O)c(CO)c1", "note": "(centres unmarked) [Salbutamol]", "values": [
      {"measurement": "effect on beat rate (BR)", "setting": "[1]; [2]", "result": "strong BR increase"},
      {"measurement": "cardiac hazard label", "setting": "[1]; [3]", "result": "low or high"}
    ]},
    {"smiles": "O=C1NCCN1CCN1CCC(c2cn(-c3ccc(F)cc3)c3ccc(Cl)cc23)CC1", "note": "[Sertindole]", "values": [
      {"measurement": "safety margin (tested concentration/free Cmax) at which very high hazard (arrhythmic events) was scored", "setting": "[1]", "result": "approximately 625 fold the free Cmax"},
      {"measurement": "cardiac hazard label", "setting": "[1]; 1 μM, 30-min incubation", "result": "very high"}
    ]},
    {"smiles": "CCCCCNC(=N)N/N=C/c1c[nH]c2ccc(OC)cc12", "note": "[Tegaserod]", "values": [
      {"measurement": "cardiac hazard label", "setting": "[1]; [3]", "result": "high"}
    ]}
  ]
}
